Measured values published in patent publication EP4813985A1, “PREPARATION OF QUINAZOLINONE DERIVATIVE AS KINASE INHIBITOR, AND USE THEREOF” (Xizang Haisco Pharmaceutical Co., Ltd., priority 2023, dated 2025).
Read-outs that look alike come from different tables or passages of the source. One block for each compound: values may come before it.

Tests used:
A375 cells = assay: A375 cell proliferation inhibition test; type: cell-based; details: Homo sapiens, A-375, 72 h
Method: A375 cells (ATCC, CRL-1619) were cultured in DMEM complete medium (+10% FBS) in a CO2 incubator at 37°C for 48 h. The cells were trypsinised and counted, and then the density was adjusted to 1.67 × 10^4 cells/mL. 90 µL (1500 cells) of cells were inoculated into each well of a 96-well transparent bottom plate, and the plate was transferred to a CO2 incubator and the cells were cultured at 37°C overnight. After the cells were incubated overnight, 10 µL of the diluted compound (final concentration starting from 10 µM, 3-fold dilution, 11 concentrations) was added to each well using a multi-channel pipette. The […] control was a serum-free medium containing DMSO. After mixing evenly, the cells were placed in a CO2 incubator at 37°C for 72 h. After the incubation, the CellCounting-Lite®2.0 kit detection solution (Vazyme, DD1101-03) was taken out and returned to room temperature. 100 µL of CellCounting-Lite2.0 detection solution was added to each well, the plate was sealed with a sealing film, and the plate was placed on a shaker for shaking for 15 min (the whole process should be kept away from light). The Luminescence module of the microplate reader (BMG LRBTECH) was used to detect the fluorescence signal value LUM of each well. The formula Inhibition rate% = ((LUM Solvent−LUM Compound)/(LUM Solvent))∗100% [formula] was used to calculate the inhibition rate of the compound. The Graphpad software log(inhibitor) vs. response -- Variable slope (four parameters) equation was used to perform fitting analysis and calculate the IC50value of the sample. The ordinate of the data is the percentage of inhibition rate, and the abscissa is the logarithm of the sample concentration (Log10).

BRAFV600E = target: T1, BRAFV600E (Homo sapiens, UniProt P15056, V600E); assay: BRAFV600E enzyme activity test (ADP-Glo, MEK1K97R substrate); type: biochemical; details: Inhibitory activities of compounds on BRAFV600E
T1 construct: purchased ABCAM ab204154
Method: BRAFV600E (ABCAM, ab204154) and MEK1K97R (USBio, M2865-06J) proteins were diluted at an appropriate dilution factor using 1×Assay buffer (PH = 7.4 Tris-HCl buffer, supplemented with 10 mM MgCl2) such that the final concentration of BRAFV600E was 10 ng/µL and the final concentration of substrate MEK1K97R was 1 µM. 1 µL of BRAFV600E, 1 µL of compound serial dilution (final concentration starting from 2 µM, 5-fold dilution, 8 concentrations), and 6 µL of Assay buffer were pipetted to a 384-well reaction plate with a capacity of 20 µL. The plate was pre-incubated in a constant temperature incubator at 37°C for 30 min. 1 µL of 200 µM ATP and 1 µM MEK1 K97R were added to the reaction wells corresponding to the compound incubation, and mixed evenly by shaking, and preincubation was performed in a constant temperature incubator at 37°C for 60 min for enzymatic reaction. After the reaction was completed, 5 µL of the above reaction product was pipetted to another 384-well plate, and 5 µL of formulated ADP-Glo™ Reagent (Promega, V9101) was added and mixed evenly by pipetting, and then the plate was placed at room temperature for 40 min. 10 µL Kinase Detection Reagent was added to the 384-well plate and incubated at room temperature for 40 min. Finally, a microplate reader (BMG LRBTECH) was used and Luminescence module was selected to detect the LUM fluorescence value of each well (the gain value was fixed at 3600), and the formula Inhibition rate% = (1−(LUM Compound−LUM Background)/(LUM Solvent−LUM Background))∗100% [formula] was used to calculate the inhibition rate of the compound on BRAFV600E. The Graphpad software log(inhibitor) vs. response -- Variable slope (four parameters) equation was used to perform fitting analysis and calculate the IC50value of the sample.

[1] = Pharmacokinetic test in mice; type: in vivo, ICR mice; details: mouse, plasma; for Vd: read-out: Vdss
Method: 3.1 Experimental animals: Male ICR mice, 20-25 g, 6 mice/compound, purchased from Chengdu Dossy Experimental Animals Co., Ltd.
3.2 Experimental design: On the day of the experiment, the ICR mice were randomly grouped according to their body weights. The animals were fasted with water available for 12-14 h one day before the administration, and were fed 4 h after the administration. Table 3.1 Administration information
vehicle for intravenous administration: 5% DMA + 5% Solutol + 90% Saline; vehicle for intragastric administration: 0.5% MC
Before and after administration, 0.06 mL of blood was taken from the orbit under isoflurane anaesthesia and placed in an EDTAK2 centrifuge tube. The tube was centrifuged at 5000 rpm at 4°C for 10 min, and plasma was collected. The blood sampling time points for both the intravenous administration group and intragastric administration group were 0 min, 5 min, 15 min, 30 min, 1 h, 2 h, 4 h, 7 h, 24 h, and 48 h. Before analysis and detection, all samples were stored at -80°C, and the samples were quantitatively analysed by LC-MS/MS. Table 3.2 Pharmacokinetic parameters of test compounds in plasma of mice

[2] = Pharmacokinetic test in mice; type: in vivo, ICR mice; details: i.g. (10 mg/kg), relative to Control compound 1
[3] = Inhibitory activities of compounds on A375 cells, read-out: IC50/nM

T1 sequence (P15056 416-766 V600E limits assumed): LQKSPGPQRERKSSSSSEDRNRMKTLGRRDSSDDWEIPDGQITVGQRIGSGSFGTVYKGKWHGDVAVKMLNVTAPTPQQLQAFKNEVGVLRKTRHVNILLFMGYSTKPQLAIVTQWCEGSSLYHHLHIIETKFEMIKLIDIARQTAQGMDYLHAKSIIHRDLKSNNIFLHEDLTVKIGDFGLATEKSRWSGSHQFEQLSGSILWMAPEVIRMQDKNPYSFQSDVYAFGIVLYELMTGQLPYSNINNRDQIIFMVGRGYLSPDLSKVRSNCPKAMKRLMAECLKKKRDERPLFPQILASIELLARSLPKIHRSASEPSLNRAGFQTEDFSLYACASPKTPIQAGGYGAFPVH

IC50 (A375 cells; [3]): 10 to 50 nM
Compound: N#Cc1c(NS(=O)(=O)N2CC(=CC(F)F)C2)ccc(F)c1Oc1ccc2ncn(CC(F)F)c(=O)c2c1 [Compound 26]

IC50 (A375 cells; [3]): ≤ 10 nM
Compound: C=C1CN(S(=O)(=O)Nc2ccc(F)c(Oc3ccc4ncc(N5CCOCC5)nc4c3)c2C#N)C1 [Compound 23]

Compound: N#Cc1c(NS(=O)(=O)N2CC(=CC(F)(F)F)C2)ccc(F)c1Oc1ccc2ncn(CC(F)F)c(=O)c2c1 [Compound 25]
IC50 (A375 cells; [3]): 10 to 50 nM

IC50 (A375 cells; [3]): ≤ 10 nM
Compound: Cc1nnc2c3cc(Oc4c(F)ccc(NS(=O)(=O)N5CC6(CCC6)C5)c4C#N)ccc3ncn12 [Compound 1]

IC50 (A375 cells; [3]): 10 to 50 nM
Compound: CN(C1CC(=C(F)F)C1)S(=O)(=O)Nc1ccc(F)c(Oc2ccc3ncn(CC(F)F)c(=O)c3c2)c1C#N (stereo not shown) [Compound 12]

Compound: CC=C1CN(S(=O)(=O)Nc2ccc(F)c(Oc3ccc4ncn(CCF)c(=O)c4c3)c2C#N)C1 [Compound 14]
IC50 (BRAFV600E): ≤ 10 nM
IC50 (A375 cells; A375 cells, values in text, read-out: IC50): 1.44 nM
IC50 (A375 cells; [3]): ≤ 10 nM
AUC(0-t) ([1]; iv, i.v. (2.5 mg/kg)): 268 µg·h/mL
clearance ([1]; iv, i.v. (2.5 mg/kg)): 0.154 mL/min/kg
half-life ([1]; iv, i.v. (2.5 mg/kg)): 556 min
Vd ([1]; iv, i.v. (2.5 mg/kg)): 0.098 L/kg
bioavailability ([1]; po, i.g. (10 mg/kg)): 85.1%
AUC(0-t) ([1]; po, i.g. (10 mg/kg)): 912 µg·h/mL
half-life ([1]; po, i.g. (10 mg/kg)): 540 min
Fold change in brain-blood ratio relative to control compound [2]: 3.5

Compound: N#Cc1c(NS(=O)(=O)N2CC(=CF)C2)ccc(F)c1Oc1ccc2ncn(CC(F)F)c(=O)c2c1 [Compound 11]
IC50 (A375 cells; [3]): ≤ 10 nM
AUC(0-t) ([1]; iv, i.v. (2.5 mg/kg)): 245 µg·h/mL
clearance ([1]; iv, i.v. (2.5 mg/kg)): 0.163 mL/min/kg
half-life ([1]; iv, i.v. (2.5 mg/kg)): 666 min
Vd ([1]; iv, i.v. (2.5 mg/kg)): 0.123 L/kg
bioavailability ([1]; po, i.g. (10 mg/kg)): 98.1%
AUC(0-t) ([1]; po, i.g. (10 mg/kg)): 962 µg·h/mL
half-life ([1]; po, i.g. (10 mg/kg)): 529 min
Fold change in brain-blood ratio relative to control compound [2]: 6.1

IC50 (A375 cells; [3]): ≤ 10 nM
Compound: C=C1CN(S(=O)(=O)Nc2ccc(F)c(Oc3ccc4ncn(CC(F)F)c(=O)c4c3)c2C#N)CC1F (stereo not shown) [Compound 21]

IC50 (A375 cells; [3]): ≤ 10 nM
AUC(0-t) ([1]; in vivo, iv, i.v. (2.5 mg/kg)): 148 µg·h/mL
clearance ([1]; in vivo, iv, i.v. (2.5 mg/kg)): 0.282 mL/min/kg
half-life ([1]; in vivo, iv, i.v. (2.5 mg/kg)): 406 min
Vd ([1]; in vivo, iv, i.v. (2.5 mg/kg)): 0.118 L/kg
AUC(0-t) ([1]; in vivo, po, i.g. (10 mg/kg)): 373 µg·h/mL
half-life ([1]; in vivo, po, i.g. (10 mg/kg)): 268 min
Fold change in brain-blood ratio relative to control compound [2]: 24.9
Compound: C=C1CCN(S(=O)(=O)Nc2ccc(F)c(Oc3ccc4ncn(CC(F)F)c(=O)c4c3)c2C#N)C1 [Compound 6]
